Source: PubChem BioAssay (NCI)
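48-hour exposure; five concentrations; linearly interpolated endpoints. Here, GI50 denotes the concentration required for 50% inhibition of growth. At the TGI there is no net growth.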

Experiments:
Assay in all cases: NCI tumour cell line growth inhibition, 48 h
MCF7 breast = test system: MCF7 breast
SF-539 CNS = test system: SF-539 CNS
SW-620 colon = test system: SW-620 colon
NCI/ADR-RES ovarian = test system: NCI/ADR-RES ovarian
IGROV1 ovarian = test system: IGROV1 ovarian
SR leukemia = test system: SR leukemia
SK-MEL-5 melanoma = test system: SK-MEL-5 melanoma
SK-MEL-2 melanoma = test system: SK-MEL-2 melanoma
OVCAR-4 ovarian = test system: OVCAR-4 ovarian
HT29 colon = test system: HT29 colon

## COc1cc(NS(C)(=O)=O)ccc1NCc1cnc2ccc3[nH]cccc3c12
MCF7 breast
  TGI: 59 µM
SF-539 CNS
  TGI: 42.2 µM
SW-620 colon
  TGI: > 92 µM
NCI/ADR-RES ovarian
  TGI: 62.1 µM
IGROV1 ovarian
  TGI: > 100 µM
SR leukemia
  TGI: 28 µM
SK-MEL-5 melanoma
  TGI: 25.2 µM
SK-MEL-2 melanoma
  TGI: 39.4 µM
OVCAR-4 ovarian
  TGI: 65.7 µM
HT29 colon
  TGI: 73.9 µM

## COc1cccc2c1C(=O)c1c(O)c3c(c(O)c1C2=O)C[C@@](O)(C(=O)CN1CCOCC1)C[C@@H]3OC1CC(N)C(O)C(C)O1 (some centres undefined)
MCF7 breast
  TGI: > 100 µM
SF-539 CNS
  TGI: 23.6 µM
SW-620 colon
  TGI: > 78.7 µM
NCI/ADR-RES ovarian
  TGI: > 100 µM
IGROV1 ovarian
  TGI: > 90.6 µM
SK-MEL-5 melanoma
  TGI: 15.7 µM
SK-MEL-2 melanoma
  TGI: 22.7 µM
OVCAR-4 ovarian
  TGI: 69.6 µM
HT29 colon
  GI50: 3.87 µM

## CCn1c(-c2ccc(OC)cc2)nc2c1C(=O)c1ccccc1C2=O
MCF7 breast
  TGI: > 100 µM
SF-539 CNS
  TGI: > 100 µM
SW-620 colon
  TGI: > 100 µM
NCI/ADR-RES ovarian
  TGI: > 100 µM
IGROV1 ovarian
  TGI: > 100 µM
SR leukemia
  TGI: > 100 µM
SK-MEL-5 melanoma
  TGI: > 100 µM
OVCAR-4 ovarian
  TGI: > 100 µM
HT29 colon
  TGI: > 100 µM

## COc1ccc(OC)c(NC2=NCCO2)c1
MCF7 breast
  TGI: > 100 µM
SF-539 CNS
  TGI: > 100 µM
SW-620 colon
  TGI: 28.2 µM
NCI/ADR-RES ovarian
  TGI: > 100 µM
IGROV1 ovarian
  TGI: > 100 µM
SR leukemia
  TGI: > 100 µM
SK-MEL-5 melanoma
  TGI: > 100 µM
SK-MEL-2 melanoma
  TGI: > 100 µM
OVCAR-4 ovarian
  TGI: > 100 µM
HT29 colon
  TGI: > 100 µM

## O=C(N/N=C\c1cccs1)c1ccncc1
MCF7 breast
  TGI: > 100 µM
SF-539 CNS
  TGI: > 100 µM
SW-620 colon
  TGI: > 100 µM
NCI/ADR-RES ovarian
  TGI: > 100 µM
IGROV1 ovarian
  TGI: > 100 µM
SR leukemia
  TGI: > 100 µM
SK-MEL-5 melanoma
  TGI: > 100 µM
SK-MEL-2 melanoma
  TGI: > 100 µM
OVCAR-4 ovarian
  TGI: > 100 µM
HT29 colon
  TGI: > 100 µM

## COC1=CC(=O)c2c(cc(COP(N)(=O)N(CCCl)CCCl)n2C)C1=O (centres undefined)
MCF7 breast
  TGI: 9.55 µM
SF-539 CNS
  TGI: 2.19 µM
SW-620 colon
  TGI: 4.21 µM
NCI/ADR-RES ovarian
  TGI: 19.8 µM
IGROV1 ovarian
  TGI: 2.66 µM
SR leukemia
  TGI: 1.31 µM
SK-MEL-5 melanoma
  TGI: 2.82 µM
SK-MEL-2 melanoma
  TGI: 4.12 µM
OVCAR-4 ovarian
  TGI: 16.3 µM
HT29 colon
  TGI: 4.33 µM

## CNC(=O)c1cc2nc3ccccc3c(=O)n2c2ccccc12
MCF7 breast
  TGI: > 10 µM
SF-539 CNS
  TGI: > 10 µM
SW-620 colon
  TGI: > 10 µM
NCI/ADR-RES ovarian
  TGI: > 10 µM
IGROV1 ovarian
  TGI: > 10 µM
SR leukemia
  TGI: > 10 µM
SK-MEL-5 melanoma
  TGI: > 10 µM
SK-MEL-2 melanoma
  TGI: > 10 µM
OVCAR-4 ovarian
  TGI: > 10 µM
HT29 colon
  TGI: > 10 µM

## Oc1cc(O)c2c(c1)O[C@H](c1cc(O)c(O)c(O)c1)[C@@H](O)C2
MCF7 breast
  TGI: 35.2 µM
SF-539 CNS
  TGI: 40.7 µM
SW-620 colon
  TGI: 32.7 µM
NCI/ADR-RES ovarian
  TGI: > 100 µM
IGROV1 ovarian
  TGI: 38.9 µM
SR leukemia
  TGI: 39.1 µM
SK-MEL-5 melanoma
  TGI: 60.2 µM
SK-MEL-2 melanoma
  TGI: 64.8 µM
OVCAR-4 ovarian
  TGI: 48.7 µM

## C=C1C(=O)[C@]23C[C@H]1C[C@@H](O)[C@H]2[C@]1(COC3=O)[C@@H](OC(C)=O)CC[C@@](C)(COC(C)=O)[C@H]1C=O
MCF7 breast
  TGI: > 50 µM
SW-620 colon
  TGI: 18.7 µM
NCI/ADR-RES ovarian
  TGI: > 50 µM
IGROV1 ovarian
  TGI: > 50 µM
SR leukemia
  TGI: > 50 µM
SK-MEL-5 melanoma
  TGI: > 50 µM
SK-MEL-2 melanoma
  TGI: > 50 µM
OVCAR-4 ovarian
  TGI: > 50 µM
HT29 colon
  TGI: > 50 µM

## CC(=O)OC12CC(C(F)(F)F)(C(F)(F)F)OC1(OC(C)=O)CC(C(F)(F)F)(C(F)(F)F)O2 (centres undefined)
MCF7 breast
  TGI: 3.73 µM
SF-539 CNS
  TGI: 8.48 µM
SW-620 colon
  TGI: > 100 µM
NCI/ADR-RES ovarian
  TGI: > 100 µM
IGROV1 ovarian
  TGI: > 100 µM
SR leukemia
  TGI: 82.1 µM
SK-MEL-5 melanoma
  TGI: 5.81 µM
SK-MEL-2 melanoma
  TGI: > 100 µM
OVCAR-4 ovarian
  TGI: > 100 µM
HT29 colon
  TGI: > 100 µM

## NC(=S)Nc1ccc2c(c1)oc1ccccc12
MCF7 breast
  TGI: > 100 µM
SW-620 colon
  TGI: > 100 µM
NCI/ADR-RES ovarian
  TGI: > 100 µM
IGROV1 ovarian
  TGI: > 100 µM
SR leukemia
  TGI: > 100 µM
SK-MEL-5 melanoma
  TGI: > 100 µM
SK-MEL-2 melanoma
  TGI: > 100 µM
OVCAR-4 ovarian
  TGI: > 100 µM
HT29 colon
  TGI: > 100 µM

## Cc1ccc(S(=O)(=O)/N=C2/N(C)CCCS2(=O)=O)cc1
MCF7 breast
  TGI: > 100 µM
SF-539 CNS
  TGI: > 100 µM
SW-620 colon
  TGI: > 100 µM
NCI/ADR-RES ovarian
  TGI: > 100 µM
IGROV1 ovarian
  TGI: > 100 µM
SR leukemia
  TGI: > 100 µM
SK-MEL-5 melanoma
  TGI: > 100 µM
SK-MEL-2 melanoma
  TGI: > 100 µM
OVCAR-4 ovarian
  TGI: > 100 µM
HT29 colon
  TGI: > 100 µM

## O=C(/C=C/c1ccc2c(c1)OCO2)NCCc1ccco1
MCF7 breast
  TGI: > 100 µM
SF-539 CNS
  TGI: > 100 µM
SW-620 colon
  TGI: > 100 µM
NCI/ADR-RES ovarian
  TGI: > 100 µM
IGROV1 ovarian
  TGI: > 100 µM
SR leukemia
  TGI: > 100 µM
SK-MEL-5 melanoma
  TGI: > 100 µM
SK-MEL-2 melanoma
  TGI: > 100 µM
OVCAR-4 ovarian
  TGI: > 100 µM
HT29 colon
  TGI: > 100 µM

## COc1cc(OCc2nc3cc(C(F)(F)F)ccc3nc2-c2ccccc2)cc(OC)c1OC
MCF7 breast
  TGI: > 100 µM
SF-539 CNS
  TGI: > 100 µM
SW-620 colon
  TGI: > 100 µM
NCI/ADR-RES ovarian
  TGI: > 100 µM
IGROV1 ovarian
  TGI: > 100 µM
SR leukemia
  TGI: > 100 µM
SK-MEL-5 melanoma
  TGI: > 100 µM
SK-MEL-2 melanoma
  TGI: > 100 µM
OVCAR-4 ovarian
  TGI: > 100 µM
HT29 colon
  TGI: > 100 µM

## Cc1nc(N)sc1C(=O)Nc1ncn[nH]1
MCF7 breast
  TGI: > 100 µM
SF-539 CNS
  TGI: > 100 µM
SW-620 colon
  TGI: > 100 µM
NCI/ADR-RES ovarian
  TGI: > 100 µM
IGROV1 ovarian
  TGI: > 100 µM
SR leukemia
  TGI: 70 µM
SK-MEL-5 melanoma
  TGI: > 100 µM
SK-MEL-2 melanoma
  TGI: > 100 µM
OVCAR-4 ovarian
  TGI: > 100 µM
HT29 colon
  TGI: > 100 µM

## CC(=O)NNC(=S)/N=C\c1c(O)c2ccccc2oc1=O
MCF7 breast
  TGI: > 100 µM
SF-539 CNS
  TGI: > 100 µM
SW-620 colon
  TGI: > 100 µM
NCI/ADR-RES ovarian
  TGI: > 100 µM
IGROV1 ovarian
  TGI: > 100 µM
SR leukemia
  TGI: > 100 µM
SK-MEL-5 melanoma
  TGI: > 100 µM
SK-MEL-2 melanoma
  TGI: > 100 µM
OVCAR-4 ovarian
  TGI: > 100 µM
HT29 colon
  TGI: > 100 µM

## C[C@@H](NC(=O)[C@@H]1C[C@]1(C)CO)c1cccc2ccccc12
MCF7 breast
  TGI: > 100 µM
SW-620 colon
  TGI: > 100 µM
NCI/ADR-RES ovarian
  TGI: > 100 µM
IGROV1 ovarian
  TGI: > 100 µM
SR leukemia
  TGI: > 100 µM
SK-MEL-5 melanoma
  TGI: > 100 µM
SK-MEL-2 melanoma
  TGI: > 100 µM
OVCAR-4 ovarian
  TGI: > 100 µM
HT29 colon
  TGI: > 100 µM

## Nc1nc2c(c(-c3ccccc3Cl)n1)COC/C2=C\c1ccccc1Cl
MCF7 breast
  TGI: 27.7 µM
SF-539 CNS
  TGI: 34.4 µM
SW-620 colon
  TGI: 31.8 µM
NCI/ADR-RES ovarian
  TGI: 33 µM
IGROV1 ovarian
  TGI: 34 µM
SR leukemia
  TGI: 22.9 µM
SK-MEL-5 melanoma
  TGI: 31.7 µM
SK-MEL-2 melanoma
  TGI: 31 µM
OVCAR-4 ovarian
  TGI: 39 µM

## COc1ccc(N2CN(C)CSC2=S)cc1
MCF7 breast
  TGI: > 100 µM
SF-539 CNS
  TGI: > 100 µM
SW-620 colon
  TGI: > 100 µM
NCI/ADR-RES ovarian
  TGI: > 100 µM
IGROV1 ovarian
  TGI: > 100 µM
SK-MEL-5 melanoma
  TGI: > 100 µM
SK-MEL-2 melanoma
  TGI: > 100 µM
OVCAR-4 ovarian
  TGI: > 100 µM
HT29 colon
  TGI: > 100 µM

## COC(=O)c1ccccc1NC(=S)NN(C)C
MCF7 breast
  TGI: > 100 µM
SF-539 CNS
  TGI: > 100 µM
SW-620 colon
  TGI: > 100 µM
NCI/ADR-RES ovarian
  TGI: > 100 µM
IGROV1 ovarian
  TGI: > 100 µM
SR leukemia
  TGI: > 100 µM
SK-MEL-2 melanoma
  TGI: > 100 µM
OVCAR-4 ovarian
  TGI: > 100 µM

## O=S(c1ccccc1)C1CC2CC3(CCC21O)OCCO3 (centres undefined)
MCF7 breast
  TGI: > 100 µM
SW-620 colon
  TGI: > 100 µM
NCI/ADR-RES ovarian
  TGI: > 100 µM
IGROV1 ovarian
  TGI: > 100 µM
SR leukemia
  TGI: > 100 µM
SK-MEL-5 melanoma
  TGI: > 100 µM
SK-MEL-2 melanoma
  TGI: > 100 µM
OVCAR-4 ovarian
  TGI: > 100 µM
HT29 colon
  TGI: > 100 µM
